Patent US20100062465A1, “Detection of Histone Deacetylase Inhibition” (priority 2006, published 2010)
Where “and” joins values, the source holds several entries; their conditions need not be identical. Equal entries are not always repeated. Structures can show the parent of a compound that is named as a salt.

Assays:
PC3 cells = experiment: 19F MRS of PC3 cell extracts (intracellular BLT, TFA, FSAHA); type: cell-based, human; settings: for Intracellular BLT level: 24 h
Protocol: For MRS studies, PC3 cells were treated for 24 h with FSAHA at 2, 5, 7, 8, 9 and 10 μM in the presence of 1 mM BLT or with 1 mM BLT alone. Approximately 1×10^7-1.5×10^7 cells were then extracted using the dual phase extraction method as previously described (Chung Y L, Troy H, Banerji U, et al. Magnetic resonance spectroscopic pharmacodynamic markers of the heat shock protein 90 inhibitor 17-allylamino, 17-demethoxygeldanamycin (17AAG) in human colon cancer models. J Natl Cancer Inst 2003 November 5;95(21):1624-33, Tyagi R K, Azrad A, Degani H, Salomon Y. Simultaneous extraction of cellular lipids and water-soluble metabolites: evaluation by NMR spectroscopy. Magn Reson Med 1996 February;35(2):194-200.47). Briefly, cells were extensively rinsed with ice-cold saline to remove any residual extracellular BLT and medium. Cells were then fixed in 10 ml of ice-cold methanol, scraped off the surface of the culture flask, collected into glass tubes and vortexed. 10 ml of ice-cold chloroform was then added followed by 10 ml of ice-cold de-ionized water. Following phase separation and solvent removal the water-soluble fraction was reconstituted in 250 μl of deuterium oxide (D2O) and 250 μl of DMSO for ^19F MR measurements. To perform the ^31P MR measurement 100 μl of EDTA and 50 μl methylene diphosphonic acid (MDPA) in D2O were added to a final concentration of 10 mM and 0.35 mM respectively. The number of cells extracted was determined by counting a separate flask of cells. ^19F MR spectra of the water-soluble metabolites were recorded as above. Metabolite concentrations were determined by integration and comparison with the area of the external C6F6 reference, normalizing to cell number and correcting for saturation effects. Correction for saturation effects was achieved by also acquiring a quantitative inverse gated fully relaxed spectrum on two different samples and calculating the correction factors which need to be applied to the partially relaxed spectra. It was determined that the T1 relaxation of BLT is 1 s and that of C6F6 is 3 s. The fully relaxed spectrum was therefore acquired using a 90 deg. flip angle and a 15 s relaxation delay (5 times the longest T1). ^31P MR spectra were recorded on an Avance DRX500 Bruker spectrometer (Bruker Biospin Germany) using a 30 deg. flip angle and 3 s relaxation delay. Metabolite concentrations were determined by integration and comparison with the area of the internal MDPA reference, normalizing to cell number and correcting for saturation effects (correction factors were determined as above by acquiring a fully relaxed quantitative spectrum using a 90 deg. flip angle and a 30 s relaxation delay).
To monitor the fluorinated metabolites, the lipid phase was reconstituted in 500 μl CDCl3. To monitor the fluorinated metabolites in cellular protein, the protein pellet obtained during cell extraction was dissolved in 1 ml of 0.5 M NaOH and heated to 60° C. for 1 h. Samples were then analyzed by ^19F MRS as above.

subcutaneous PC3 tumors = experiment: In vivo 19F MRS of BLT in subcutaneous PC3 tumors; settings: intraperitoneal 100 mg/kg, 4.7 T
Protocol: As expected, the TFA peak could not be easily resolved in our preliminary in vivo studies. Intratumoral BLT levels may be higher in HDACI-treated tumors compared to controls, and therefore tumoral BLT levels may be used to assess HDAC activity in vivo. Downstream metabolic biomarkers also may be assessed in our preliminary studies. We were able to acquire a ^31P spectrum from PC3 subcutaneous tumors in 30 minutes providing a means for monitoring PC levels. This is consistent with previous studies in which an increase in PC could be monitored as an indicator of response to 17AAG treatment. ^1H MRS, with its greater sensitivity compared to ^31P, could also be used to monitor the total choline signal as a downstream metabolic marker of response to HDAC inhibition.

[1] = In vivo toxicity of BLT after intraperitoneal injection; settings: intraperitoneal 100 mg/kg once a week on three subsequent weeks
c-Raf-1 = experiment: Western blot analysis of protein levels; type: cell-based, human; settings: PC3 cells, 10 μM FSAHA in the presence of 1 mM BLT
Protocol: (§1) PC3 cells were lysed using cell lysis buffer (0.1% NP-40, 50 mM HEPES (pH 7.4), 250 mM NaCl, 1 mM dithiothreitol, 1 mM EDTA, 1 mM NaF, 10 mM β-glycerophosphate, 0.1 mM sodium orthovanadate, 1 μl/ml of protease inhibitor cocktail set III (Calbiochem, USA) and 1 mM phenylmethylsulfonyl fluoride). Lysates were centrifuged at 12,000 rpm for 10 min (4° C.), the protein supernatant collected and total protein concentrations determined using Biorad DC Protein assay reagents (Biorad, CA, USA). Proteins were separated by sodium do-decyl sulfate-polyacrylamide gel electrophoresis using 10% gels and transferred electrophoretically to 0.45 μm Nitrocellulose membranes. Membranes were blocked in blocking buffer containing 5% non-fat dry milk in Tris buffered saline (pH 7.6) and 0.1% Tween-20 and incubated overnight at 4° C. with primary antibodies as follows. c-Raf, 1:1000, (Cell Signaling Technology (CST), MA, USA), Cdk4, 1:2000 (CST, MA, USA), Hsp70, 1:2000 (Stressgen, Canada) and GAPDH, 1:5000 (Stressgen, Canada). This was followed by 1 hour incubation with horseradish peroxidase-conjugated secondary anti-rabbit (CST MA, USA) and anti-mouse (CST, MA, USA) antibodies at dilutions of 1:1000 and 1:2000 respectively. Membranes were […] with enhanced chemiluminescence reagents (LumiGLO & Peroxide, CST MA. USA) for 1 minute and exposed to hyperfilm (Amersham Biosciences, USA), which was developed on a Konica SRX-101 automatic developer (Konica, Tokyo, Japan).

cdk4 = experiment: Western blot analysis of protein levels; type: cell-based, human; settings: PC3 cells, 10 μM FSAHA in the presence of 1 mM BLT
Protocol: as §1

Hsp70 = experiment: Western blot analysis of protein levels; type: cell-based, human; settings: PC3 cells, 10 μM FSAHA in the presence of 1 mM BLT
Protocol: as §1

[2] = PC3 cells, 10 μM FSAHA in the presence of 1 mM BLT

Row | SMILES | Intracellular BLT level (PC3 cells; PC3 cells, 1 mM BLT alone (control cells)) | Intracellular TFA concentration (PC3 cells; PC3 control cells, 1 mM BLT alone) [fmol/cell] | Time the BLT signal remained detectable within the tumor region (subcutaneous PC3 tumors) | MRS detectability in tumor (subcutaneous PC3 tumors; temporal resolution 5 minutes) | Toxicity to the animal [1] | Average increase of intracellular BLT (PC3 cells; 10 μM FSAHA-treated PC3 cells) [fmol/cell] | Intracellular TFA concentration (PC3 cells; [2]) [fmol/cell] | Intracellular BLT level (PC3 cells; [2]) | c-Raf-1 protein level (Western blot) (c-Raf-1) | cdk4 protein level (Western blot) (cdk4) | Induction of Hsp70 (Western blot) (Hsp70)
1 | CC(C)(C)OC(=O)N[C@@H](CCCCNC(=O)C(F)(F)F)C(=O)O [BLT, Boc-Lys-TFA-OH] | 14±4 fmol/cell and 14 fmol/cell | 1.1±0.6 | over 2 hours | MRS visible BLT signal | no detectable toxicity | – | – | – | – | – | –
2 | O=C(CCCCCCC(=O)Nc1ccc(F)cc1)NO [FSAHA, 4-Fluorosuberanilohydroxamic acid] | – | – | – | – | – | 18 | 1±1 | 32±4 fmol/cell and 32 fmol/cell | depletion | depletion | not observed
